The record followed here is ChEMBL document CHEMBL1156494, “Stelliferin riboside, a triterpene monosaccharide isolated from the Fijian sponge Geodia globostellifera” (J Nat Prod, 2001).

≈ marks a conversion by molar mass, not a printed value.

Test [1] concerns A2780. As to the kind of experiment: Cytotoxicity against human A2780 cells. Format: functional, cell-based.
The subject of test [2] is K562. The test is described as follows: Cytotoxicity against human K562 cells. Format: functional, cell-based.

Usually IC50 stands for the concentration at which inhibition is half-maximal. A lower IC50 goes with greater potency.

In the case of `CC(/C=C/C=C(\C)c1ccc(C)c(=O)o1)=C1/C(=O)C[C@H]2[C@@]3(C)CCC(=O)C(C)(C)[C@@H]3CC[C@]12C` [STELLETTIN B], the IC50 was found to be 0.0051 µg/mL (≈ 0.011 µM) in test [1] and 0.93 µg/mL (≈ 2.01 µM) in test [2].

`CC(=O)O[C@@H]1CC[C@@]2(C)[C@@H](CC[C@]3(C)/C(=C(C)/C=C/C=C(\C)C(CC=C(C)C)O[C@@H]4OC[C@@H](O)[C@@H](O)[C@H]4O)C(=O)C[C@@H]23)C1(C)C` (stereo partly specified) [STELLIFERIN RIBOSIDE]: the IC50 was 38.1 µg/mL (≈ 60.6 µM) in test [1] and over 50 µg/mL in test [2].

As to `C\C(=C/C=C/C(C)=C1/C(=O)C[C@H]2[C@@]3(C)CCC(=O)C(C)(C)[C@@H]3CC[C@]12C)c1ccc(C)c(=O)o1` [STELLETIN A], the IC50 worked out at 1.52 µg/mL (≈ 3.29 µM) in test [1] and 3.82 µg/mL (≈ 8.26 µM) in test [2].
